Data from paper PMC8185074, “Anchor extension: a structure-guided approach to design cyclic peptides targeting enzyme active sites” (Nature Communications, 2021).
Like-named read-outs stand apart in the source and are kept apart here. Blank lines part the entries; values can stand above or below the compound they belong to. Peptide text beside a SMILES is read from it.

Key:
Assay type in all cases: biochemical
HDAC2 = target: T1, HDAC2 (Homo sapiens, UniProt Q92769); assay: HDAC2 inhibition, full IC50 measurement (Reaction Biology; fluorogenic p53 peptide RHKK(Ac)AMC)
T1 construct: purchased Reaction Biology Corporation (assay run by the CRO)
T1 sequence (Q92769 whole entry): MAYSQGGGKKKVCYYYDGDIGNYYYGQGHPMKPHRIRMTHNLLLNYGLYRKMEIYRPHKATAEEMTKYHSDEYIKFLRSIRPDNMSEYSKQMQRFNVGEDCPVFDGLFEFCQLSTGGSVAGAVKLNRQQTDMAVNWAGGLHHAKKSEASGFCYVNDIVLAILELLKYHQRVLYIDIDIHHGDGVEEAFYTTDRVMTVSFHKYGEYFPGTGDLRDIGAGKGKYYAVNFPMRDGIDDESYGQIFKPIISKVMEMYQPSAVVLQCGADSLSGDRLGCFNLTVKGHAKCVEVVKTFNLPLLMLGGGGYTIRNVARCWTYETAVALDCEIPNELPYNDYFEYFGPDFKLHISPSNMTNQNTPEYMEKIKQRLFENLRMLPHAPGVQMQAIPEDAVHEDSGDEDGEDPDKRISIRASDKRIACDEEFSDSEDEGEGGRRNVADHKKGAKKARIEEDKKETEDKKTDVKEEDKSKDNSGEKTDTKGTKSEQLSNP
In short: (§1)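 The reaction was a 1 h, 30 °C incubation of enzyme, acoustically added peptide and 50 μM p53-derived AMC substrate in pH 8.0 Tris buffer with NaCl, KCl, MgCl2, 1 mg/ml BSA and 1% DMSO. Duplicate values were averaged.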

HDAC8 = target: T2, HDAC8 (Homo sapiens, UniProt Q9BY41); assay: HDAC8 inhibition, full IC50 measurement (Reaction Biology; fluorogenic p53 peptide RHKK(Ac)AMC); details: for HDAC8 activity raw data (signal): t1/t2 replicates
T2 construct: purchased Reaction Biology Corporation (assay run by the CRO)
T2 sequence (Q9BY41 1-377): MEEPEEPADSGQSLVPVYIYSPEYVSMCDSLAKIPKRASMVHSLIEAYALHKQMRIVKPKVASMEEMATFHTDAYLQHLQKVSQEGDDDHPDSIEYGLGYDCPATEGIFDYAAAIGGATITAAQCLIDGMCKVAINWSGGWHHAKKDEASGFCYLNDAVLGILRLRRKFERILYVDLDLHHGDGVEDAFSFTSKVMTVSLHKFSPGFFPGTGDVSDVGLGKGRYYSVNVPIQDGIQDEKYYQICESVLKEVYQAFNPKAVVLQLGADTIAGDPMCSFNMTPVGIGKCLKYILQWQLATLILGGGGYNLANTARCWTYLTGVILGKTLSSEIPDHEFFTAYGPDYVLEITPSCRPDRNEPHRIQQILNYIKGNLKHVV
In short: as §1

HDAC1 = target: T3, HDAC1 (Homo sapiens, UniProt Q13547); assay: HDAC1 inhibition, full IC50 measurement (Reaction Biology; fluorogenic p53 peptide RHKK(Ac)AMC); details: for HDAC1 activity raw data (signal): t1/t2 replicates
T3 construct: purchased Reaction Biology Corporation (assay run by the CRO)
T3 sequence (Q13547 whole entry): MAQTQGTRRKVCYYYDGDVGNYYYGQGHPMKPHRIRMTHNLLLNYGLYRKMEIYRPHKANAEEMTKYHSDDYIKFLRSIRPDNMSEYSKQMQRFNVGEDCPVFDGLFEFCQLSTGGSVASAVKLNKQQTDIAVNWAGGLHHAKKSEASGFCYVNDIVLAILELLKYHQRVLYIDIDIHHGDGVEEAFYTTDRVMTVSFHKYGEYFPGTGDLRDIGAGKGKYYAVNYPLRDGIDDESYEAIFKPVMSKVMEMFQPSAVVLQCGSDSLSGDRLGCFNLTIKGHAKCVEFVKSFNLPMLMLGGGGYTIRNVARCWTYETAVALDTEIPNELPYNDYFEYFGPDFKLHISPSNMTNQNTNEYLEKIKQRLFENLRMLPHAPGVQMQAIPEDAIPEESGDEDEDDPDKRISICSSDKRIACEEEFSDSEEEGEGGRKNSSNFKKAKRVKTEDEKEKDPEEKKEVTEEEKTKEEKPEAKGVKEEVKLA
In short: as §1

HDAC11 = target: T4, HDAC11 (Homo sapiens, UniProt Q96DB2); assay: HDAC11 profiling of SHA anchor
T4 sequence (Q96DB2 1-347): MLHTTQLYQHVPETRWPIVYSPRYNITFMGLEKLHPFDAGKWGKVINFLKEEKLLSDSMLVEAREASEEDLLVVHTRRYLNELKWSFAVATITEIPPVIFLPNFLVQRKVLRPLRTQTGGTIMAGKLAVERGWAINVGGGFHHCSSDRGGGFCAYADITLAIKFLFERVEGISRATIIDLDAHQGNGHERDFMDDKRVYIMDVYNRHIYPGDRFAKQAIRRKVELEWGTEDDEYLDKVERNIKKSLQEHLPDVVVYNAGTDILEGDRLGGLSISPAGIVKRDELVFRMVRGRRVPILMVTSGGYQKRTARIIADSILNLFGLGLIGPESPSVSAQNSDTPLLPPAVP

[1] = peptide conc. 1.00E-05 M, listed as des4.3.1_t1
[2] = peptide conc. 1.00E-05 M, listed as des4.3.1_t2
[3] = peptide conc. 1.11E-06 M, listed as des4.3.1_t1
[4] = peptide conc. 1.11E-06 M, listed as des4.3.1_t2
[5] = peptide conc. 1.23E-07 M, listed as des4.3.1_t1
[6] = peptide conc. 1.23E-07 M, listed as des4.3.1_t2
[7] = peptide conc. 1.37E-08 M, listed as des4.3.1_t1
[8] = peptide conc. 1.37E-08 M, listed as des4.3.1_t2
[9] = peptide conc. 1.52E-09 M, listed as des4.3.1_t1
[10] = peptide conc. 1.52E-09 M, listed as des4.3.1_t2
[11] = peptide conc. 3.33E-06 M, listed as des4.3.1_t1
[12] = peptide conc. 3.33E-06 M, listed as des4.3.1_t2
[13] = peptide conc. 3.70E-07 M, listed as des4.3.1_t1
[14] = peptide conc. 3.70E-07 M, listed as des4.3.1_t2
[15] = peptide conc. 4.12E-08 M, listed as des4.3.1_t1
[16] = peptide conc. 4.12E-08 M, listed as des4.3.1_t2
[17] = peptide conc. 4.57E-09 M, listed as des4.3.1_t1
[18] = peptide conc. 4.57E-09 M, listed as des4.3.1_t2
[19] = peptide conc. 5.08E-10 M, listed as des4.3.1_t1
[20] = peptide conc. 5.08E-10 M, listed as des4.3.1_t2

- HDAC2 raw activity signal (HDAC2; Conc. 1.00E-05 M): 210566
- HDAC2 raw activity signal (HDAC2; Conc. 1.11E-06 M): 643731
- HDAC2 raw activity signal (HDAC2; Conc. 1.23E-07 M): 728862
- HDAC2 raw activity signal (HDAC2; Conc. 1.37E-08 M): 787686
- HDAC2 raw activity signal (HDAC2; Conc. 1.52E-09 M): 708004
- HDAC2 raw activity signal (HDAC2; Conc. 3.33E-06 M): 523867
- HDAC2 raw activity signal (HDAC2; Conc. 3.70E-07 M): 682189
- HDAC2 raw activity signal (HDAC2; Conc. 4.12E-08 M): 772929
- HDAC2 raw activity signal (HDAC2; Conc. 4.57E-09 M): 735698
- HDAC2 raw activity signal (HDAC2; Conc. 5.08E-10 M): 743884
- IC50 (HDAC2; read-out: HDAC2 IC50): 5.4 µM
- HDAC8 raw activity signal (HDAC8; Conc. 1.00E-05 M): 485885
- HDAC8 raw activity signal (HDAC8; Conc. 1.11E-06 M): 715893
- HDAC8 raw activity signal (HDAC8; Conc. 1.23E-07 M): 664184
- HDAC8 raw activity signal (HDAC8; Conc. 1.37E-08 M): 813063
- HDAC8 raw activity signal (HDAC8; Conc. 1.52E-09 M): 850527
- HDAC8 raw activity signal (HDAC8; Conc. 3.33E-06 M): 572309
- HDAC8 raw activity signal (HDAC8; Conc. 3.70E-07 M): 755715
- HDAC8 raw activity signal (HDAC8; Conc. 4.12E-08 M): 855669
- HDAC8 raw activity signal (HDAC8; Conc. 4.57E-09 M): 817878
- HDAC8 raw activity signal (HDAC8; Conc. 5.08E-10 M): 743919
- HDAC1 raw activity signal (HDAC1; Conc. 1.00E-05 M): 155805
- HDAC1 raw activity signal (HDAC1; Conc. 1.11E-06 M): 648714
- HDAC1 raw activity signal (HDAC1; Conc. 1.23E-07 M): 748850
- HDAC1 raw activity signal (HDAC1; Conc. 1.37E-08 M): 768411
- HDAC1 raw activity signal (HDAC1; Conc. 1.52E-09 M): 737474
- HDAC1 raw activity signal (HDAC1; Conc. 3.33E-06 M): 525567
- HDAC1 raw activity signal (HDAC1; Conc. 3.70E-07 M): 713862
- HDAC1 raw activity signal (HDAC1; Conc. 4.12E-08 M): 763721
- HDAC1 raw activity signal (HDAC1; Conc. 4.57E-09 M): 780017
- HDAC1 raw activity signal (HDAC1; Conc. 5.08E-10 M): 759317
- binding to HDAC11 (HDAC11): no binding
- HDAC11 raw activity signal (HDAC11; Conc. 1.00E-05 M): 857709
- HDAC11 raw activity signal (HDAC11; Conc. 1.11E-06 M): 1073570
- HDAC11 raw activity signal (HDAC11; Conc. 1.23E-07 M): 1094662
- HDAC11 raw activity signal (HDAC11; Conc. 1.37E-08 M): 1209318
- HDAC11 raw activity signal (HDAC11; Conc. 1.52E-09 M): 1051037
- HDAC11 raw activity signal (HDAC11; Conc. 3.33E-06 M): 847001
- HDAC11 raw activity signal (HDAC11; Conc. 3.70E-07 M): 1077158
- HDAC11 raw activity signal (HDAC11; Conc. 4.12E-08 M): 1064044
- HDAC11 raw activity signal (HDAC11; Conc. 4.57E-09 M): 1134026
- HDAC11 raw activity signal (HDAC11; Conc. 5.08E-10 M): 1061165
Compound: N[C@@H](CCCCCS)C(=O)O [SHA, 2S-2-amino-7-sulfanylheptanoic acid]
- HDAC2 inhibition potency in words (HDAC2): low micro-molar to high nano-molar affinities
- HDAC8 inhibition potency in words (HDAC8): low micro-molar to high nano-molar affinities
- HDAC1 inhibition potency in words (HDAC1): low micro-molar to high nano-molar affinities

Compound: CCCC[C@H]1NC(=O)[C@H](Cc2ccccc2)NC(=O)[C@H](CCCCCS)NC(=O)[C@@H](CCCNC(=N)N)NC(=O)[C@H](CC(=O)O)NC(=O)[C@@H](CO)NC(=O)[C@@H](C)NC(=O)[C@H](CCCCN)NC1=O [des4.3.1, SHA-Phe-dNle-Lys-dAla-dSer-Asp-dArg] (HELM PEPTIDE1{D.[dR].[O=C([C@H](CCCCCS)N[*:1])[*:2]].F.[CCCC[C@@H](N[*:1])C(=O)[*:2]].K.[dA].[dS]}$PEPTIDE1,PEPTIDE1,1:R1-8:R2$$$V2.0)
- HDAC2 activity raw data (signal) (HDAC2; Conc. 1.00E-05 M, t1): 97979
- HDAC2 activity raw data (signal) (HDAC2; Conc. 1.00E-05 M, t2): 118920
- HDAC2 activity raw data (signal) (HDAC2; Conc. 1.11E-06 M, t1): 710265
- HDAC2 activity raw data (signal) (HDAC2; Conc. 1.11E-06 M, t2): 678505
- HDAC2 activity raw data (signal) (HDAC2; Conc. 1.23E-07 M, t1): 1050894
- HDAC2 activity raw data (signal) (HDAC2; Conc. 1.23E-07 M, t2): 1073616
- HDAC2 activity raw data (signal) (HDAC2; Conc. 1.37E-08 M, t1): 1089277
- HDAC2 activity raw data (signal) (HDAC2; Conc. 1.37E-08 M, t2): 1188700
- HDAC2 activity raw data (signal) (HDAC2; Conc. 1.52E-09 M, t1): 1283576
- HDAC2 activity raw data (signal) (HDAC2; Conc. 1.52E-09 M, t2): 1146756
- HDAC2 activity raw data (signal) (HDAC2; Conc. 3.33E-06 M, t1): 321418
- HDAC2 activity raw data (signal) (HDAC2; Conc. 3.33E-06 M, t2): 369190
- HDAC2 activity raw data (signal) (HDAC2; Conc. 3.70E-07 M, t1): 905304
- HDAC2 activity raw data (signal) (HDAC2; Conc. 3.70E-07 M, t2): 972905
- HDAC2 activity raw data (signal) (HDAC2; Conc. 4.12E-08 M, t1): 1002980
- HDAC2 activity raw data (signal) (HDAC2; Conc. 4.12E-08 M, t2): 1204296
- HDAC2 activity raw data (signal) (HDAC2; Conc. 4.57E-09 M, t1): 1158146
- HDAC2 activity raw data (signal) (HDAC2; Conc. 4.57E-09 M, t2): 1127910
- HDAC2 activity raw data (signal) (HDAC2; Conc. 5.08E-10 M, t1): 1185807
- HDAC2 activity raw data (signal) (HDAC2; Conc. 5.08E-10 M, t2): 1137899
- IC50 (HDAC2; unit printed only in the axis title, read-out: HDAC2 IC50 (printed in dose-response picture)): 1.5 µM
- HDAC8 activity raw data (signal) (HDAC8; [1]): -1078311
- HDAC8 activity raw data (signal) (HDAC8; [2]): -204031
- HDAC8 activity raw data (signal) (HDAC8; [3]): 952629
- HDAC8 activity raw data (signal) (HDAC8; [4]): 3749954
- HDAC8 activity raw data (signal) (HDAC8; [5]): 24845816
- HDAC8 activity raw data (signal) (HDAC8; [6]): 32510062
- HDAC8 activity raw data (signal) (HDAC8; [7]): 71732810
- HDAC8 activity raw data (signal) (HDAC8; [8]): 73842492
- HDAC8 activity raw data (signal) (HDAC8; [9]): 70954745
- HDAC8 activity raw data (signal) (HDAC8; [10]): 80270259
- HDAC8 activity raw data (signal) (HDAC8; [11]): 928811
- HDAC8 activity raw data (signal) (HDAC8; [12]): 1732618
- HDAC8 activity raw data (signal) (HDAC8; [13]): 8410528
- HDAC8 activity raw data (signal) (HDAC8; [14]): 10886213
- HDAC8 activity raw data (signal) (HDAC8; [15]): 59468141
- HDAC8 activity raw data (signal) (HDAC8; [16]): 56999449
- HDAC8 activity raw data (signal) (HDAC8; [17]): 79326596
- HDAC8 activity raw data (signal) (HDAC8; [18]): 78170432
- HDAC8 activity raw data (signal) (HDAC8; [19]): 81559751
- HDAC8 activity raw data (signal) (HDAC8; [20]): 84202880
- HDAC1 activity raw data (signal) (HDAC1; [1]): 61312
- HDAC1 activity raw data (signal) (HDAC1; [2]): 56616
- HDAC1 activity raw data (signal) (HDAC1; [3]): 524367
- HDAC1 activity raw data (signal) (HDAC1; [4]): 474109
- HDAC1 activity raw data (signal) (HDAC1; [5]): 1051662
- HDAC1 activity raw data (signal) (HDAC1; [6]): 1036587
- HDAC1 activity raw data (signal) (HDAC1; [7]): 1215949
- HDAC1 activity raw data (signal) (HDAC1; [8]): 1295956
- HDAC1 activity raw data (signal) (HDAC1; [9]): 1351214
- HDAC1 activity raw data (signal) (HDAC1; [10]): 1240672
- HDAC1 activity raw data (signal) (HDAC1; [11]): 212161
- HDAC1 activity raw data (signal) (HDAC1; [12]): 198550
- HDAC1 activity raw data (signal) (HDAC1; [13]): 878996
- HDAC1 activity raw data (signal) (HDAC1; [14]): 808933
- HDAC1 activity raw data (signal) (HDAC1; [15]): 1147207
- HDAC1 activity raw data (signal) (HDAC1; [16]): 1235202
- HDAC1 activity raw data (signal) (HDAC1; [17]): 1224928
- HDAC1 activity raw data (signal) (HDAC1; [18]): 1148569
- HDAC1 activity raw data (signal) (HDAC1; [19]): 1219331
- HDAC1 activity raw data (signal) (HDAC1; [20]): 1171745
